Reference: patent US20060099170A1, “Compositions for inducing increased levels of beta-chemokines and methods of use therefor” (priority 2002, published 2006)
Read-outs that look alike come from different tables or passages of the source.

Legend:
activated PBMCs [1] = experiment: Cell number / proliferation of activated PBMCs (trypan blue); type: cell-based, human
Experimental: (§1) Cell proliferation was measured by the trypan blue staining viability test, [^3H]thymidine incorporation in DNA, and the 3-(4,5-dimethylthiazol-2-yl)-2,5-diphenyl tetrazolium bromide (MTT) assay (Roche).
To this end, β-chemokine levels (production or availability) by activated PBMCs cultured in the presence of HU was investigated. HU is a G1 cytostatic drug that, by depleting intracellular nucleotide pools, arrests cell cycle progression in late G1 (Lori, et al., 1994). […] In the representative experiment depicted in FIG. 2, day 8 chemokine levels in cultures containing 100 μM HU were increased 3.4-fold for RANTES, 5.4-fold for MIP-1α, and 4-fold for MIP-1β compared with the untreated control. Because HU inhibits lymphocyte proliferation, chemokine values also were expressed as chemokine amount per viable cell. As expected, cell numbers were lower in the presence of the drug (FIG. 2C).
The agents evaluated were SB, APH, RC, and OL. SB and APH arrest the cell cycle in early and late G1, respectively (Korin, et al., 1998; Koostra, et al., 2000). RC and OL are purine-derivative drugs that arrest cell cycle progression in late G1 through inhibition of cyclin-dependent kinases (CDKs) (Gray, et al., 1999). […] The number of viable cells and chemokine levels are depicted. […]

activated PBMCs [2] = experiment: β-chemokine levels (ELISA) in supernatants of activated PBMCs cultured with cell cycle arresting compounds; type: cell-based, human
CD8 lymphocytes [3] = experiment: β-chemokine levels (ELISA) in cultures of purified activated CD8 lymphocytes; type: cell-based, human
CD4 = experiment: Cyclic therapy trial with HU during off-ARV periods: absolute CD4 count; type: in vivo, human; details: 7 days on ARV's alternated by 14 days off ARV's but on HU
Description: (§2) The protocol used in the present invention expands on the NIH's concept of Cyclic Therapy. Cyclic therapy is a strategy in which patients can maintain viral suppression despite alternating between 7 days of taking ARV medications and 7 days of taking no medications. Compared to the NIH trail of short cycle of 7 days intermittently off therapy, in our trial, the G1 cycle agent HU is being used to maintain viral suppression during an extended off medication cycle of 14-28 days. The off period is followed by 7 days of combination antiretroviral therapy. This has allowed study participants to be on ⅔ fewer medications but still maintain viral control and immune reconstitution.
(§3) Four patients are enrolled in the trial. Patients in this study have benefited from decreased drug related toxicities, relief from difficult financial sacrifices to stay on ARV's, and improved adherence to medications.

HIV = experiment: Cyclic therapy trial with HU during off-ARV periods: viral load; type: in vivo; details: for Viral load: 7 days on ARV's alternated by 14 days off ARV's but on HU
Description: as §2, §3

CD8 lymphocytes [4] = type: cell-based, human
Experimental: as §1
The impact of cell cycle arrest in β-chemokine levels was evaluated by measuring chemokine levels in supernatants of cell cultures containing compounds known to cause cell cycle arrest. Levels of the β-chemokines RANTES, MIP-1α, and MIP-1β were measured by using commercial ELISA kits (R &D Systems). Cell cycle arrest in G1 was induced by culturing of the cells in the presence of aphidicolin (APH), sodium butyrate (SB), hydroxyurea (HU), roscovitine (RC), or olomoucine (OL). Arrest in late S phase was induced by culture of cells in the presence of resveratrol. G2 cycle arrest was induced by the compounds nocodazole and Colcemid. All compounds were purchased from Sigma except RC and OL, which were from Calbiochem. Arrest of cell cycle progression in the presence of G1 cytostatic agents was measured by propidium iodide staining followed by fluorescence-activated cell sorter (FACS) analysis (Noguchi, et al., 1991). This method may be used to test any compound for ability to arrest the G1 phase in a cell cycle.
In the experiments described thus far, total PBMCs had been used. […] Negatively selected CD8^+ lymphocytes were activated by anti-CD3 plus IL-2 treatment for 3 days. Activated cells were cultured in the presence of IL-2 and HU (100 and 200 μM) for 24 or 48 h, time points at which cell proliferation and supernatant chemokine levels were assayed. Cell proliferation was determined by trypan blue staining, [^3H]thymidine incorporation in DNA, and percentage of cells in S phase as assessed by propidium iodide staining (FIG. 4). […] Similarly, the percentage of cells in S phase increased in the absence of HU, whereas it decreased in its presence. […]
To investigate whether increased levels of supernatant chemokines upon cell cycle arrest are cell cycle phase-specific, the effect of G2 arrest in chemokine production next was evaluated. […]

HIV-1 BaL = experiment: HIV-1-suppressive activity of supernatants from HU-treated PBMCs, infected PBMCs, p24; type: cell-based; details: 100 μM HU in fresh medium, day 7 after infection
Experimental: The antiviral activity of the supernatants collected from cultures of PBMCs that had been exposed to 100 μM HU for 7 days [supernatants referred to as conditioned medium (CM)] was evaluated in PBMCs infected with HIV-1 BaL and HIV-1 IIIb. Briefly, PHA-activated PBMCs were infected with each virus at 100 tissue culture 50% infective dose units (TCID50)/10^6 PBMCs or 10 TCID50/10^6 PBMCs for 2 h at 37° C. Infected cells were cultured in IL-2 medium alone, IL-2 medium with 100 μM HU, IL-2 medium containing 50% supernatant from HU-treated PBMCs (CM/HU), or IL-2 medium containing 50% supernatant from control-treated PBMCs (CM/control). On day 3 after infection, culture medium was replaced with fresh medium of the same kind as on day 1. Viral growth (measured by p24 levels in the supernatant) and cell viability (assayed by MTT) were determined on day 7 after infection.
These culture supernatants were referred to as CM/HU. Culture supernatants from activated PBMCs cultured under the same conditions in the absence of HU (CM/control) also were harvested.
The antiviral activity of the CM was evaluated in the infection of PBMCs with HIV-1 BaL (a prototype R5-using virus) and HIV-1 IIIb (a prototype X4-using virus). […] Virus replication and cell viability were measured on day 7 after infection.

HIV-1 ADA = experiment: Antiviral activity of TAK-779 with or without RAPA in PBMCs (p24); type: cell-based
Experimental: For infection of PBMCs, fresh donor PBMCs were cultured for 7 days in medium containing IL-2. On day 7, cells were exposed to the virus for 3 h. Nonadsorbed virus was removed by washing cells with PBS three times. Infected cells were cultured in IL-2 medium. Infection of MDMs was carried out as described before (Pemo, et al. 1993). Unless otherwise indicated, PBMCs were infected by using a moi of 0.001, and monocyte-derived macrophages (MDMs) were infected by using a moi of 0.002. Virus growth was monitored in culture supernatants by measuring p24 antigen levels by ELISA (NEN) or by measuring viral RT activity in an RT assay (Willey, et al., 1988).
To test this hypothesis, donor PBMCs were cultured in IL-2 medium in the absence or presence of RAPA (1, 10, and 100 nM). […] Infected cells were cultured in the presence of RAPA (same concentration as during pretreatment) plus 0.1 nM TAK-779. Virus production was determined 7 days after infection (FIG. 11).

[5] = 100 μM HU, day 8, levels as ng/ml
[6] = at G1 cytostatic concentrations of the drug, PHA-activated PBMCs

C[C@@]1(CO)[C@H](O)CC[C@@]2(C)[C@H]1CC[C@H]1C[C@@H]3C[C@@]12CC[C@]3(O)CO [APH, aphidicolin]
cell proliferation (activated PBMCs [1]; 0.5 μM APH): reduced cell proliferation
chemokine values (activated PBMCs [2]; 0.5 μM APH, PHA-activated PBMCs): Increased chemokine values

CN[C@H]1CCc2cc(OC)c(OC)c(OC)c2-c2ccc(OC)c(=O)cc21 [Colcemid]
chemokine content on G2 cycle arrest (CD8 lymphocytes [3]; same as nocodazole (lower than untreated), data not shown): same results

NC(=O)NO [HU, hydroxyurea]
cell numbers (activated PBMCs [1]; PHA-activated PBMCs in presence of HU, trypan blue): lower
Absolute CD4 count (CD4; Patient 1, 3 wks): 377
Absolute CD4 count (CD4; Patient 1, column head 21 wks): 518
Absolute CD4 count (CD4; Patient 2, 3 wks): 1256
Absolute CD4 count (CD4; Patient 2, 18 wks): 973
Absolute CD4 count (CD4; Patient 3, 3 wks): 934
Absolute CD4 count (CD4; Patient 3, 12 wks): 995
Viral load (HIV; Patient 1, 6 wks): 72 Copies/ml
Viral load (HIV; Patient 1, 9 wks): 158 Copies/ml
Viral load (HIV; Patient 1, 12 wks): 114 Copies/ml
Viral load (HIV; Patient 1, 18 wks): 973 Copies/ml
Viral load (HIV; Patient 1, column head 3 wks off continuous therapy): 0 Copies/ml
Viral load (HIV; Patient 1, column head 15 wks): 322 Copies/ml
Viral load (HIV; Patient 1, column head 21 wks): 0 Copies/ml
Viral load (HIV; Patient 2, 3 wks): 0 c/ml
Viral load (HIV; Patient 2, 6 wks): 0 c/ml
Viral load (HIV; Patient 2, 9 wks): 0 c/ml
Viral load (HIV; Patient 2, 12 wks): 0 c/ml
Viral load (HIV; Patient 2, 18 wks): 0 c/ml
Viral load (HIV; Patient 2, column head 15 wks): 0 c/ml
Viral load (HIV; Patient 3, 3 wks): 0 c/ml
Viral load (HIV; Patient 3, 6 wks): 0 c/ml
Viral load (HIV; Patient 3, 9 wks): 0 c/ml
Viral load (HIV; Patient 3, 12 wks): 0 c/ml
viral suppression despite discontinuation of primary anti-retroviral drugs (HIV; all three patients, at least 3 cycles of treatment): persistent viral suppression
MIP-1α level increase (CD8 lymphocytes [3]; 100 μM HU, 48 h): 3.7 fold
MIP-1β level increase (CD8 lymphocytes [3]; 100 μM HU, 48 h): 4.7 fold
RANTES level increase (CD8 lymphocytes [3]; 100 μM HU, 48 h): 1.9 fold
chemokine production levels (CD8 lymphocytes [3]; 200 μM HU, 48 h, compared with 100 μM): Slightly lower increases
percentage of cells in S phase (CD8 lymphocytes [4]; HU 100 and 200 μM, propidium iodide): decreased
cell number and thymidine incorporation between 24 and 48 h (CD8 lymphocytes [4]; HU 100 and 200 μM, doubled in absence of HU): remained constant or decreased
chemokine levels (activated PBMCs [2]): increased chemokine levels
MIP-1α level increase compared with untreated control (activated PBMCs [2]; [5]): 5.4 fold
MIP-1β level increase compared with untreated control (activated PBMCs [2]; [5]): 4 fold
RANTES level increase compared with untreated control (activated PBMCs [2]; [5]): 3.4 fold
MIP-1α level increase, ng per 10^6 cells (activated PBMCs [2]; 100 μM HU, per viable cell): 25.4 fold
MIP-1β level increase, ng per 10^6 cells (activated PBMCs [2]; 100 μM HU, per viable cell): 18.4 fold
RANTES level increase, ng per 10^6 cells (activated PBMCs [2]; 100 μM HU, per viable cell): 16.2 fold
concentrations (ng/ml) of RANTES, MIP-1α, and MIP-1β in the culture supernatants (activated PBMCs [2]; PHA-activated PBMCs, HU for 14 days, dose-dependent): increased concentrations
inhibition of HIV-1 BaL replication (HIV-1 BaL): < 10%
inhibition at 100 µM (HIV-1 BaL; Human immunodeficiency virus 1, BAL, PBMC, 168 h, read-out: inhibition of HIV-1 BaL replication): 8%

CC[C@H](CO)Nc1nc(NCc2ccccc2)c2ncn(C(C)C)c2n1 [RC, roscovitine]
chemokine levels (activated PBMCs [2]; [6]): increased chemokine levels

CCCC(=O)[O-].[Na+] [SB, sodium butyrate]
chemokine levels (activated PBMCs [2]; [6]): increased chemokine levels

Cc1ccc(-c2ccc3c(c2)C=C(C(=O)Nc2ccc(C[N+](C)(C)C4CCOCC4)cc2)CCC3)cc1.[Cl-] [TAK-779]
inhibition of virus replication (HIV-1 ADA; 0.1 nM TAK-779, absence of RAPA, day 7): 21%
virus inhibition due to TAK-779 (HIV-1 ADA; 0.1 nM TAK-779 in presence of 1 nM RAPA): 74.5%
virus inhibition due to TAK-779 (HIV-1 ADA; 0.1 nM TAK-779 in presence of 10 nM RAPA): 89%
virus inhibition due to TAK-779 (HIV-1 ADA; 0.1 nM TAK-779 in presence of 100 nM RAPA): 96%

COC(=O)Nc1nc2ccc(C(=O)c3cccs3)cc2[nH]1 [nocodazole]
chemokine content (CD8 lymphocytes [3]; 0.01 μg/ml nocodazole, 48 h, G2 arrest): lower than in the untreated controls
cell cycle distribution (CD8 lymphocytes [4]; 0.01 μg/ml nocodazole, 48 h): accumulation of cells in G2

Oc1ccc(C=Cc2cc(O)cc(O)c2)cc1 [resveratrol]
chemokine levels on cell cycle arrest in late S (CD8 lymphocytes [3]; 10 μM resveratrol, data not shown): lower than the untreated control
